Experimental data from patent US7342021B2, “Phosphodiesterase 4 inhibitors” (Memory Pharmaceuticals Corp., priority 2001, dated 2008).
Counter-ions that a name gives are not always drawn.

Key:
[1] = Solubility of the mesylate salt in H2O; type: physicochemical
Experimental: To obtain the methansulphonate salt (mesylate salt), 4 ml of 0.1N CH3SO3H in EtOAc was added to a solution of 145 mg (0.4 mmol) 6-cyclopropylamino-9-(2-fluorobenzyl)-2-trifluoromethylpurine in EtOAc. Then, 1 ml of hexane was added to a warm solution and the resultant mixture was allowed to crystallize (within a refrigerator). The solid was collected to give 148 mg of the mesylate salt. […] M.p. 167.5-169.0 C; m.p. 114-118 C for free base.

rats [2] = experiment: Passive avoidance in rats, an in vivo test for learning and memory; parameters: species or system rat; settings: MK-801 0.1 mg/kg pretreatment, retention test 24 hours after electric shock, compared to the vehicle, p<0.001
Experimental: The test was performed as previously described (Zhang, H.-T., Crissman, A. M., Dorairaj, N. R., Chandler, L. J., and O'Donnell, J. M., Neuropsychopharmacology, 2000, 23, 198-204.). The apparatus (Model E10-16SC, Coulbourn Instruments, Allentown, Pa.) consisted of a two-compartment chamber with an illuminated compartment connected to a darkened compartment by a guillotine door. The floor of the darkened compartment consisted of stainless steel rods through which an electric foot-shock could be delivered from a constant current source. All experimental groups were first habituated to the apparatus the day before the start of the experiment. During the training, the rat (Male Spraque-Dawley (Harlan) weighing 250 to 350 g) was placed in the illuminated compartment facing away from the closed guillotine door for 1 minute before the door was raised. The latency for entering the darkened compartment was recorded. After the rat entered the darkened compartment, the door was closed and a 0.5 mA electric shock was administered for 3 seconds. […] The latency for entering the darkened compartment was recorded for up to 180 seconds, at which time the trial was terminated.
(§1) All data were analyzed by analyses of variance (ANOVA); individual comparisons were made using Kewman-Keuls tests. […]

rats [3] = experiment: Radial arm maze task in rats, an in vivo test for learning and memory; parameters: species or system rat; settings: MK-801 0.1 mg/kg i.p., compared to control, p<0.01
Experimental: The test was performed as previously described (Zhang, H.-T., Crissman, A. M., Dorairaj, N. R., Chandler, L. J., and O'Donnell, J. M., Neuropsychopharmacology, 2000, 23, 198-204.). Five days after initial housing, rats (male Spraque-Dawley (Harlan) weighing 250 to 350 g) were placed in the eight-arm radial maze (each arm was 60×10×12 cm high; the maze was elevated 70 cm above the floor) for acclimation for two days. Rats were then placed individually in the center of the maze for 5 minutes with food pellets placed close to the food wells, and then, the next day, in the wells at the end of the arms; 2 sessions a day were conducted. Next, four randomly selected arms were then baited with one pellet of food each. The rat was restricted to the center platform (26 cm in diameter) for 15 seconds and then allowed to move freely throughout the maze until it collected all pellets of food or 10 minutes passed, whichever came first. Four parameters were recorded: 1) working memory errors, i.e., entries into baited arms that had already been visited during the same trial; 2) reference memory errors, i.e., entries into unbaited arms; 3) total arm entries; and 4) the test duration (seconds), i.e., the time spent in the collection of all the pellets in the maze. […]
as §1

Row | SMILES | solubility in H2O [1] | latency for entering the darkened compartment (rats [2]) | reference memory errors (frequency) (rats [3]) | working memory errors (frequency) (rats [3])
1 | Fc1ccccc1Cn1cnc2c(NC3CC3)nc(C(F)(F)F)nc21 [Example 4 mesylate salt, 6-cyclopropylamino-9-(2-fluorobenzyl)-2-trifluoromethylpurine] | relatively insoluble |  |  | 
2 | C[C@]12N[C@H](Cc3ccccc31)c1ccccc12 [MK-801] |  | markedly reduced this latency | increased the frequencies | increased the frequencies
